US20080255206A1, “Rxr Agonists and Antagonists, Alone or in Combination with Ppar Ligands, in the Treatment of Metabolic and Cardiovascular Diseases” (priority 2005, published 2008)

Experiments:
[1] = test system: c-Jun mRNA expression; assay: Semi chronic inflammation of mouse ears, c-Jun mRNA (northern blot); assay type: in vivo, C57BL/6 mice
Protocol: (§1) […] mice of the C57BL/6 strain are used. Inflammation is induced on mouse ears with either AtRA, 9-cis RA or TPA by topical application. Inflammation is measured objectively by determination of the activity of myeloperoxidase (MPO) being directly correlated to the infiltration of polymorphonuclear white blood cells and by the determination of mRNA expression of c-jun, a protein implicated in the AP-1 transduction pathway according to known methods, see e.g. P. L. Stanley et al., Skin Pharmacol. 4, 262-271 (1991) (MPO assay), N. Basset-Sequin et al., J. Invest. Dermatol. 94, 418-422 (1990), F. J. Rauscher et al., Cell 52, 471-480 […], P. Sassone-Corn et al., Nature 326, 507-510 (1987), and M. Pfahl, Endocr. Rev. 14, 651-658, 1993, which are incorporated by reference regarding the experimental method.
(§2) The anti-inflammatory effect of topical RXR antagonists is tested by determination of myeloperoxidase activity in % of vehicle controls. The effect of the RXR antagonist compound 15 is also compared with the well known anti-inflammatory effect of the two corticosteroids, clobetasol dipropionate and betamethasone propionate. For induction of inflammation, AtRA and TPA are applied topically to the skin and the administration of the test compounds, the RXR antagonist compound 15 and the two corticosteroids are given in the following order, according to the schedule, described in: Skin Pharmacol 1991; 4 (4): 262-271, Stanley P L. et.al.: RA or TPA is administered on days 0, 2, 4, 7 and 9, compound 15 or corticosteroids are administered twice daily on day 7, day 8 and day 9 and once on day 10 in the morning. The mice are sacrificed on day 10 in the afternoon.
In the same experiment, the expression of c-Jun mRNA is determined by northern blot and expressed in percent of the vehicle controls.

[2] = test system: myeloperoxidase (MPO) activity; assay: Semi chronic inflammation of mouse ears, MPO activity; assay type: in vivo, C57BL/6 mice; conditions: 11 d
Protocol: as §1
(§3) In the “acute inflammation” test, mice are treated topically (epicutaneously), orally or intraperitoneally, daily for 4 days. In the “semi chronic inflammation” test, mice are treated topically according to the schedules given below. For each experiment, a group of at least 4 mice of both sexes are used in the defined condition, regarding placebo, vehicle control, compound, topical formulation, oral formulation, dosage and concentration. The topical vehicle consists of ethanol/PEG 400/water (3:1:1).
as §2

[3] = test system: humans; conditions: clinical trials by other authors; cited from earlier work
[4] = target: T1, RXRγ (Homo sapiens, UniProt P48443); assay: Retinoid binding assay, RXRγ; design: made in house; host or cells: E. coli; conditions: [3H] 9-cis retinoic acid 20 nM; read-out: Binding Affinity IC50 RXR γ
T1 sequence (P48443 1-463): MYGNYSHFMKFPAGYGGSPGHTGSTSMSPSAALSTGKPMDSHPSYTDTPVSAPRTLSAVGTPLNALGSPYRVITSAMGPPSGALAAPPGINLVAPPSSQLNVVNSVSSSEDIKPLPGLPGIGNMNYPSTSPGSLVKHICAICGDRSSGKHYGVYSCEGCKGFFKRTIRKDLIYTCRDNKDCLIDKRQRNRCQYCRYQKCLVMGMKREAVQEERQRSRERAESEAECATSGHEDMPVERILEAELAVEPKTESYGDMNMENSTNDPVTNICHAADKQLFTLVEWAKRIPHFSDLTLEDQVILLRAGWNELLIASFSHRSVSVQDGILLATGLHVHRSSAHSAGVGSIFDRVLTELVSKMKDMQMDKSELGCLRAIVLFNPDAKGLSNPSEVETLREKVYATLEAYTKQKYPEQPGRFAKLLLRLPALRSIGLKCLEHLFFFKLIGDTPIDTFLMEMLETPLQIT
Excerpt: The DEF domains of RAR's and the full length RXR's, expressed in E.coli, are used to measure competitive retinoid binding. […] 9-cis retinoic acid (for RXR's), respectively. […] Separation of bound from free radioactivity is achieved by charcoal/dextran (RAR's) or by desalting columns (RXR's). […] Retinoid Activation Assays

[5] = test system: myeloperoxidase (MPO) activity; assay: Acute inflammation of mouse ears, MPO activity; assay type: in vivo, C57BL/6 mice; conditions: TPA 0.005% alone, topical, 4 d
Protocol: as §1, §3
The anti-inflammatory effect of topical RXR antagonist compound 15 is tested by determination of myeloperoxidase activity in % of vehicle treated controls. For induction of inflammation 9-cis RA or TPA are applied topically to the skin, daily for 4 days. The RXR antagonist compound 15 (see Table 1) is administered topically one hour after the application of the inflammation inducing agent. The mice are sacrified 24 hours after the last treatment.

[6] = TPA 0.005% + test compound 0.05%
[7] = TPA 0.005% + test compound 0.05% topical

CCC(=O)O[C@]1(C(=O)CCl)[C@@H](C)C[C@H]2[C@@H]3CCC4=CC(=O)C=C[C@]4(C)[C@@]3(F)[C@@H](O)C[C@@]21C
c-Jun mRNA expression (% of vehicle treated mice) [1, 6]: 43 % of vehicle treated mice | MPO activity (% vehicle treated mice) [2, 7]: 239 ± 43 % vehicle treated mice

CC1=C(/C=C/C(C)=C/C=C/C(C)=C/C(=O)O)C(C)(C)CCC1 [At RA, all-trans retinoic acid]
MPO activity (% vehicle treated mice) ([2]; At RA 0.05% alone, topical): 1371 ± 345 % vehicle treated mice

Cc1cc2c(cc1C1(c3ccc(C(=O)O)cn3)CC1)C(C)(C)CCC2(C)C [Compound 3, 6-[1-(3,5,5,8,8-Pentamethyl-5,6,7,8-tetrahydro-naphthalen-2yl)-cyclopropyl]-nicotinic acid, reference compound]
Serum lipids in clinical trials (humans) [3]: marked triglyceridemia | IC50 [4]: 90 nM

CCCCCCCCCCCCCC(=O)O[C@@H]1[C@@H](C)[C@@]2(O)[C@@H](C=C(CO)C[C@]3(O)C(=O)C(C)=C[C@@H]23)[C@@H]2C(C)(C)[C@]12OC(C)=O [TPA, 12-O-tetradecanoylphorbol-13-acetate]
MPO activity (% vehicle treated mice) [5]: 376 ± 72 % vehicle treated mice | c-Jun mRNA expression (% of vehicle treated mice) ([1]; TPA 0.005% alone): 163 % of vehicle treated mice | MPO activity (% vehicle treated mice) ([2]; TPA 0.005% alone, topical): 572 ± 61 % vehicle treated mice

betamethasone propionate
c-Jun mRNA expression (% of vehicle treated mice) [1, 6]: 24 % of vehicle treated mice | MPO activity (% vehicle treated mice) [2, 7]: 257 ± 38 % vehicle treated mice
